For 17 molecules, Bliss interaction score results are on record in the supplement of paper PMC10627819.

What all share (assay): Bliss interaction score (quartile over a dose matrix) (fitness difference); higher = more antagonism (negative = synergy)
One assay relates to S. pneumoniae D39V. The method, boiled down: (§1)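 The Bliss score subtracts expected fitness, the product of the single-drug fitness values, from observed fitness. Fitness is plate-normalised OD595 at entry into stationary phase, relative to the robust no-drug mean and capped at 1, with single-drug fitness inferred from combinations. Summaries are quartiles over technical, biological and donor/recipient replicates.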

Another assay relates to S. aureus DSM 20231. The essentials:
as §1

For a further assay, the system named is S. aureus Newman. The essentials: as §1
Another assay has as its system B. subtilis 168. The essentials: as §1
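Note: first quartile when negative (synergy) and third quartile when positive (antagonism).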

Take `O=C(O)[C@H]1/C(=C/CO)O[C@@H]2CC(=O)N21` [Clavulanic] + CO[C@@]12[C@H](COC(N)=O)C3=C(C(=O)C(C)=C(N)C3=O)N1C[C@@H]1N[C@@H]12 [MitomycinC]: the Bliss interaction score with S. pneumoniae D39V was -0.0718; with S. aureus DSM 20231, -0.0996; in the assay with S. aureus Newman, 0.129; in the assay with B. subtilis 168 it was -0.113.
In the same order, the values of `Clc1ccc(COC(Cn2ccnc2)c2ccc(Cl)cc2Cl)c(Cl)c1` (stereo not drawn) [Miconazole] + COc1cc(Cc2cnc(N)nc2N)cc(OC)c1OC [Trimethoprim] are -0.117, 0.0514, 0.0486 and 0.0906.
In the same order, the values of `CC[C@H]1OC(=O)[C@H](C)[C@@H](O[C@H]2C[C@@](C)(OC)[C@@H](O)[C@H](C)O2)[C@H](C)[C@@H](O[C@@H]2O[C@H](C)C[C@H](N(C)C)[C@H]2O)[C@](C)(O)C[C@@H](C)CN(C)[C@H](C)[C@@H](O)[C@]1(C)O` [Azithromycin] + C[C@@H](O)[C@H]1C(=O)N2C(C(=O)O)=C(SCCNC=N)C[C@H]12 [Imipenem] are 0.0485, -0.0324, -0.0196 and 0.105.
For `O=C(O)[C@H]1/C(=C/CO)O[C@@H]2CC(=O)N21` [Clavulanic] + CCC[C@@H]1C[C@@H](C(=O)N[C@@H]([C@H]2O[C@H](SC)[C@H](O)[C@@H](O)[C@H]2O)[C@@H](C)O)N(C)C1 [Lincomycin] the same measures were 0.0627, -0.194, 0.132 and -0.0568.
Take `Cn1c2cccc(=O)c-2nc2ccccc21` [Pyocyanin] + Oc1cc(Cl)ccc1Oc1ccc(Cl)cc1Cl [Triclosan]: the Bliss interaction score is -0.0544 in the assay with S. pneumoniae D39V, 0.037 in the assay on S. aureus DSM 20231, 0.0494 in the assay with S. aureus Newman and -0.0279 in the assay with B. subtilis 168.
Turning to `CC1=C(C(=O)O)N2C(=O)[C@@H](NC(=O)[C@H](N)c3ccccc3)[C@H]2SC1` [Cephalexin] + CCC[C@@H]1C[C@@H](C(=O)N[C@@H]([C@H]2O[C@H](SC)[C@H](O)[C@@H](O)[C@H]2O)[C@H](C)Cl)N(C)C1 [Clindamycin], the Bliss interaction score is 0.14 in the assay with S. pneumoniae D39V, -0.0563 with S. aureus DSM 20231, 0.138 in the assay with S. aureus Newman and -0.0509 in the assay on B. subtilis 168.
In the same order, the values of `Oc1cc(Cl)ccc1Oc1ccc(Cl)cc1Cl` [Triclosan] + COc1cc(Cc2cnc(N)nc2N)cc(OC)c1OC [Trimethoprim] are 0.113, -0.0451, 0.0267 and 0.13.
In the same order, the values of `O=C(O)[C@H]1/C(=C/CO)O[C@@H]2CC(=O)N21` [Clavulanic] + CN(C)C(=O)C(CCN1CCC(O)(c2ccc(Cl)cc2)CC1)(c1ccccc1)c1ccccc1 [Loperamide] are 0.0637, -0.361, 0.209 and 0.389.
With `O=C(O)[C@H]1/C(=C/CO)O[C@@H]2CC(=O)N21` [Clavulanic] + C[C@@H](O)[C@H]1C(=O)N2C(C(=O)O)=C(SCCNC=N)C[C@H]12 [Imipenem], the Bliss interaction score is 0.0559 in the assay with S. pneumoniae D39V, 0.094 with S. aureus DSM 20231, -0.0736 in the assay with S. aureus Newman and 0.108 in the assay on B. subtilis 168.
For `O=C(O)[C@H]1/C(=C/CO)O[C@@H]2CC(=O)N21` [Clavulanic] + CC1(C)S[C@@H]2[C@H](NC(=O)Cc3ccccc3)C(=O)N2[C@H]1C(=O)O [PenicillinG] the same measures were 0.0529, -0.147, -0.128 and -0.351.
As to `O=C(O)[C@H]1/C(=C/CO)O[C@@H]2CC(=O)N21` [Clavulanic] + CC(C1CCC(C(O1)OC2C(CC(C(C2O)OC3C(C(C(CO3)(C)O)NC)O)N)N)N)NC [Gentamicin], the Bliss interaction score in the assay with S. pneumoniae D39V (main component drawn) was 0.0396; in the assay on S. aureus DSM 20231 (main component drawn) it was -0.273; in the assay on S. aureus Newman (main component drawn), 0.288; in the assay on B. subtilis 168 (main component drawn) it was 0.105.
Take `CC1=C(C(=O)O)N2C(=O)[C@@H](NC(=O)[C@H](N)c3ccccc3)[C@H]2SC1` [Cephalexin] + C[C@@H](O)[C@H]1C(=O)N2C(C(=O)O)=C(SCCNC=N)C[C@H]12 [Imipenem]: the Bliss interaction score is -0.237 in the assay with S. pneumoniae D39V, 0.0677 in the assay on S. aureus DSM 20231, -0.0579 in the assay with S. aureus Newman and -0.104 in the assay with B. subtilis 168.
For `CNC(C)C1CCC(N)C(OC2C(N)CC(N)C(OC3OCC(C)(O)C(NC)C3O)C2O)O1` (stereo not drawn) [Gentamicin] + CO[C@@]12[C@H](COC(N)=O)C3=C(C(=O)C(C)=C(N)C3=O)N1C[C@@H]1N[C@@H]12 [MitomycinC], the Bliss interaction score in the assay on S. pneumoniae D39V (main component drawn) is 0.0575; in the assay with S. aureus DSM 20231 (main component drawn) it was -0.0573; in the assay with S. aureus Newman (main component drawn) it was 0.0445; in the assay with B. subtilis 168 (main component drawn), -0.0792.
For the molecule `C[n+]1ccc(-c2cc[n+](C)cc2)cc1` [Paraquat] + C/C(=C\C(=O)OCCCCCCCCC(=O)O)C[C@@H]1OC[C@H](C[C@@H]2O[C@H]2[C@@H](C)[C@H](C)O)[C@@H](O)[C@H]1O [Pseudomonic acid], the Bliss interaction score was -0.0863 with S. pneumoniae D39V, 0.0093 with S. aureus DSM 20231, 0.0152 in the assay on S. aureus Newman and 0.0715 with B. subtilis 168.
Take `O=C(O)[C@H]1/C(=C/CO)O[C@@H]2CC(=O)N21` [Clavulanic] + O=C1CN(/N=C/c2ccc([N+](=O)[O-])o2)C(=O)N1 [Nitrofurantoin]: the Bliss interaction score in the assay with S. pneumoniae D39V came out at 0.0879; in the assay on S. aureus DSM 20231 it was 0.039; in the assay with S. aureus Newman it was 0.102; in the assay with B. subtilis 168 it was 0.0868.
For `CC1=C(C(=O)O)N2C(=O)[C@@H](NC(=O)[C@H](N)c3ccccc3)[C@H]2SC1` [Cephalexin] + CN(C)[C@@H]1C(O)=C(C(N)=O)C(=O)[C@@]2(O)C(O)=C3C(=O)c4c(O)ccc(Cl)c4[C@@](C)(O)[C@H]3C[C@@H]12 [Clortetracycline] the same measures were 0.0348, 0.0869, 0.104 and 0.0862.
In the same order, the values of `CC[C@H]1OC(=O)[C@H](C)C(=O)[C@H](C)[C@@H](O[C@@H]2O[C@H](C)C[C@H](N(C)C)[C@H]2O)[C@](C)(OC)C[C@@H](C)C(=O)[C@H](C)[C@H]2N(CCCCn3cnc(-c4cccnc4)c3)C(=O)O[C@]12C` [Telithromycin] + CN(C)c1cc(NC(=O)CNC(C)(C)C)c(O)c2c1C[C@H]1C[C@H]3[C@H](N(C)C)C(O)=C(C(N)=O)C(=O)[C@@]3(O)C(O)=C1C2=O [Tigecycline] are -0.107, -0.0261, 0.0378 and 0.0616.
